Laboratory results from patent US20080242684A1, “METHODS OF ADMINISTRATION OF ADENOSINE A1 RECEPTOR ANTAGONISTS” (priority 2007, published 2008).

Experiments:
[1] = system: Subjects presenting with congestive heart failure who are refractory to high dose diuretic therapy; assay: Example 3: IV KW-3902 in subjects refractory to standard IV diuretic therapy; type: in vivo, human; conditions: 20-40 mg KW-3902 IV over 3-5 hours
Experimental: Changes in urine output are measured hourly. The subjects' creatinine clearance rate is measured every 3 hours. […] A dose of between about 20 mg and about 40 mg, preferably about 30 mg of KW-3902 in injectable form is infused through the IV line over the course of about 3 to about 5 hours, and preferably over the course of 4 hours. The subject receives continued treatment with furosemide. The subject's fluid intake and output, urine volume, serum and urine creatinine levels, electrolytes and cardiac function are monitored.

[2] = system: hospitalized subject treated with maximum amounts of IV diuretic and still fluid overloaded; assay: Example 4: IV KW-3902 with continued furosemide in a hospitalized subject refractory to IV diuretic; type: in vivo, human; conditions: 20-40 mg KW-3902 IV over 3-5 hours
Experimental: A hospitalized subject who has been treated with maximum amounts of IV diuretic and is still symptomatic, fluid overloaded, or whose urine output is less than fluid intake is evaluated for further treatment. A dose of a KW-3902 between about 20 mg and about 40 mg, and preferably about 30 mg injectable form is infused through the IV line over the course of about 3 hours to about 5 hours, and preferably over the course of about 4 hours. […] The subject's fluid intake and output, urine volume, serum and urine creatinine levels, electrolytes and cardiac function are monitored.

[3] = system: subject with fluid overload and impaired renal function; assay: Example 5: IV KW-3902 concurrent with diuretic therapy in fluid overload and impaired renal function; type: in vivo, human; conditions: 20-40 mg KW-3902 IV over 3-5 hours, concurrent with other diuretic therapy
Experimental: A subject with fluid overload, as manifested by peripheral edema, dyspnea, and/or other signs or symptoms presents themself to the physician's office or clinic. The subject has been on a therapy regimen that includes oral diuretics and, in addition, to needing a higher dose of diuretics to manage his/her fluid balance, the subject is now showing impaired renal function. […] The subject is administered a dose of about 20 mg to about 40 mg KW-3902 intravenously over about 3 to about 5 hours, preferably over the course of about 4 hours, concurrent with other diuretic therapy. The subject's fluid intake and output, urine volume, serum and urine creatinine levels, electrolytes and cardiac function are monitored.

[4] = system: subject with fluid overload; assay: Example 7: IV KW-3902 concurrent with diuretic therapy in fluid overload; type: in vivo, human; conditions: 20-40 mg KW-3902 IV over 3-5 hours
Experimental: A subject with fluid overload, as manifested by peripheral edema, dyspnea, and/or other signs or symptoms presents to the physician's office or clinic. The subject has been on a therapy regimen that includes oral diuretics and needs a higher dose of diuretics to manage his/her fluid balance. To delay or prevent the onset of renal impairment and/or to delay the need to use higher dosages of standard diuretics, the subject is administered a dose of about 20 mg to about 40 mg, and preferably a dose of about 30 mg, KW-3902 IV, administered over the course of about 3 to about 5 hours, and preferably over the course of about 4 hours. The subject also receives concurrent with their diuretic therapy. The subject's fluid intake and output, urine volume, serum and urine creatinine levels, electrolytes and cardiac function are monitored.

[5] = system: Subjects presenting with New York Heart Association Class II-IV CHF and estimated creatinine clearance between 20 mL/min and 80 mL/min
Experimental: The subjects are taking an oral loop diuretic. The subjects can also present with a one of the following: history of seizure, stroke within two years, brain tumor, brain surgery within two years, encephalitis within two years, history of penetrating head trauma, closed head injury with loss of consciousness over 30 minutes within two years, history of alcohol withdrawal seizure, advanced Alzheimer's disease, or advanced multiple sclerosis (“at risk” subjects). The subjects' medical history, physical examination, classification of CHF, vital signs, body weight, CHF signs and symptom scores, Holter monitor recording, chest X-ray, CBC chemistries, creatinine clearance, fluid intake, and urine output are determined on pre-treatment days −2 to −1, days 1 to 3 of the Treatment Period, day 4/early Termination and a follow up contact at day 30. […] On day 1, the composition comprising KW-3902 (or placebo) is administered as a monotherapy. 6 hours after administration of KW-3902, IV loop diuretic is given to all treatment groups as needed. […] Final laboratory data are collected on day 4 or early termination. Follow-up phone contact is conducted on day 30.

SMILES: CCCn1c(=O)c2[nH]c(C34CC5CC(CC3C5)C4)nc2n(CCC)c1=O [KW-3902, 8-(3-noradamantyl)-1,3-dipropylxanthine]
- seizures during the course of treatment ([1]; continued furosemide): do not experience seizures
- creatinine clearance ([1]; compared to placebo): improvement in creatinine clearance
- hourly urine volume over the ensuing 9 hours ([1]; compared to placebo): increased hourly urine volume
- diuresis [2]: improved diuresis
- seizures [2]: do not experience seizures
- creatinine clearance [3]: improved diuresis and creatinine clearance
- diuresis [3]: improved diuresis
- seizures throughout the course of therapy [3]: do no experience seizures
- diuresis [4]: improved diuresis
- renal function [4]: renal function is maintained
- seizure throughout the course of treatment [4]: do not experience a seizure
- kidney function as measured by serum creatinine levels compared to the baseline levels ([5]; 20-40 mg (preferably about 30 mg) KW-3902 IV over about 4 hours, days 1-3, effect greater than placebo): improvement in kidney function
- seizures throughout the treatment period ([5]; at risk subjects): do not experience seizures
- diuresis, as measured by urine output ([5]; combination of KW-3902 and non adenosine-modifying diuretics such as furosemide): synergistic beneficial effect on diuresis
